From patent US8541579B2, “Substituted diketopiperazines as oxytocin antagonists” (Glaxo Group Limited, priority 2001, dated 2013)

System: rats
Test: Administration to rats p.o. for 4 days, toxicological effects
Type: in vivo
Conditions: doses of up to 300 mg/kg p.o for 4 days
Excerpt: The compounds of the invention are essentially non toxic at therapeutically active doses.

In the case of `CC(C)C[C@@H]1C(=O)N[C@H](C2Cc3ccccc3C2)C(=O)N1[C@@H](C(=O)N(C)C)c1ccc(F)cc1F` [Example 10, (2R)-2-(2,4-difluorophenyl)-2-[(3R,6R)-3-(2,3-dihydro-1H-inden-2-yl)-6-isobutyl-2,5-dioxopiperazin-1-yl]-N,N-dimethylethanamide], the adverse toxicological effects is reported as “no adverse toxicological effects were observed”.
